What is called MIC is the lowest concentration found to suppress growth.

The structures appear in SMILES notation. Converted amounts (≈) assume the structure as drawn. Read-outs that look alike come from different tables or passages of the source. Some results are limits rather than exact numbers.

This is an account of results in US11464749B2, “Bismuth-thiol compositions and methods of use” (Microbion Corporation, priority 2018, dated 2022).

Data set [1] relates to vancomycin-intermediate Staphylococcus aureus (VISA). The data set can be described thus: Broth microdilution MIC (Example 12). On the technique in general: Dilution methods test growth across graded concentrations, often in twofold steps.
A short description of data set [2]: Particle size distribution of BisEDT samples vs processing conditions (Table 111). The format is physicochemical. The conditions noted are these: BisEDT sample. As for the experimental part: It was observed that careful control of the reaction temperature and the rate of 1,2 ethanedithiol addition had pronounced impact on the BisEDT particle size distribution.
To a 1-L jacketed reactor was charged USP water (480 mL, 48 vol), followed by 70% HNO3 (34 mL, 3.4 vol). A solution of bismuth subnitrate (10 g, 6.84 mmols) in water (43 mL, 4.3 vol) and 70% HNO3 (14 mL, 1.4 vol) was added at 20° C. The reaction mixture was cooled to 15° C. for addition of 95% Ethanol. The 95% ethanol (180 mL, 18 vol) was then added slowly. (Ethanol addition is exothermic, temperature reached 22° C.). The temperature was then adjusted back to 20° C. […] The reaction was stirred at 20° C. overnight. The reaction mixture was filtered through polypropylene cloth and washed with 95% ethanol (45 mL, 4.5 vol). The wet cake was charged back to the reactor and slurried in 95% ethanol (380 mL, 38 vol) for two hours at 20° C. The suspension was then filtered (same cloth) and washed with 95% ethanol (30 mL, 3 vol). The wet cake was again slurried in 95% EtOH (170 mL, 17 vol) at 20° C., filtered (same cloth), and washed with 95% ethanol (30 mL, 3 vol). The wet cake was then slurried in acetone (170 mL, 17 vol) at 20° C. overnight, followed by filtration (same cloth) and acetone wash (20 mL, 2 vol). The acetone (170 ml, 17 vol) treatment was repeated on the solids and stirred for 2 hours. The suspension was filtered (same cloth) and washed with acetone (30 mL, 3 vol) and died at 45° C. and dried at 45° C. (18 hours) to provide canary yellow solid (10.81 g 91.0%).
Representative synthesis of BisEDT at 15° C. with 1 hour addition of thiol via syringe pump, and polypropylene cloth for filtration: The synthesis BisEDT was performed on 10-g scale, temperature profile was studied with data logger. Ethane dithiol was added at 15° C. over 1 hour via syringe pump and the filtration was performed using PP filter cloth. To a 1-L jacketed reactor was charged USP water (480 mL, 48 vol) and cooled to 15° C., followed by 70% HNO3 (34 mL, 3.4 vol). A solution of bismuth subnitrate (10 g, […]) in water (43 mL, 4.3 vol) and 70% HNO3 (14 mL, 1.4 vol) was added at the same temperature. The 95% ethanol (180 mL, 18 vol) was then added slowly. […] It was then allowed to cool to 15° C. This was followed by dropwise addition of 1,2 ethanedithiol (4.3 mL, […] in 95% ethanol in 94 mL, 9.4 vol) over an hour with the batch temperature at 15° C. The reaction was allowed to stir at 15° C. overnight. The reaction mixture was filtered through polypropylene cloth and washed with 95% ethanol (45 mL, 4.5 vol). The wet cake was charged back to the reactor and slurried in 95% ethanol (380 mL, 38 vol) for two hours at 20° C. The suspension was then filtered (same cloth) and washed with 95% ethanol (30 mL, 3 vol). The wet cake was again slurried in 95% EtOH (170 mL, 17 vol) at 20° C., filtered (same cloth), and washed with 95% ethanol (30 mL, 3 vol). The wet cake was then slurried in acetone (170 mL, 17 vol) at 20° C. overnight, followed by filtration (same cloth) and acetone wash (20 mL, 2 vol). The acetone (170 ml, 17 vol) treatment was repeated on the solids and stirred for 2 hours. The suspension was filtered (same cloth) and washed with acetone (30 mL, 3 vol) and died at 45° C. and dried at 45° C. (18 hours) to provide canary yellow solid (10.43 g 87.8%).

As for `CCC[C@@H]1C[C@@H](C(=O)N[C@@H]([C@H]2O[C@H](SC)[C@H](O)[C@@H](O)[C@H]2O)[C@H](C)Cl)N(C)C1` [CLI], the minimum inhibitory concentration (MIC) in data set [1] (S. aureus NRS 1 (hVISA)) was more than 8 µg/mL; in data set [1] (S. aureus NRS 2) it was more than 8 µg/mL; in data set [1] (S. aureus NRS 3), more than 8 µg/mL; in data set [1] (S. aureus NRS 4), more than 8 µg/mL; in data set [1] (S. aureus NRS 13), 0.06 µg/mL (≈ 0.141 µM); in data set [1] (S. aureus NRS 18) it was more than 8 µg/mL. The MIC in data set [1] (S. aureus NRS 22), in data set [1] (S. aureus NRS 24 (hVISA)) and in data set [1] (S. aureus NRS 27) was more than 8 µg/mL each time.
For `CCCCCCCCCC(=O)NC(Cc1c[nH]c2ccccc12)C(=O)NC(CC(N)=O)C(=O)NC(CC(=O)O)C(=O)NC1C(=O)NCC(=O)NC(CCCN)C(=O)NC(CC(=O)O)C(=O)NC(C)C(=O)NC(CC(=O)O)C(=O)NCC(=O)NC(CO)C(=O)NC(C(C)CC(=O)O)C(=O)NC(CC(=O)c2ccccc2N)C(=O)OC1C` (stereo not shown) [DAP], the MIC in data set [1] (S. aureus NRS 1 (hVISA)) is 1 µg/mL (≈ 0.617 µM); in data set [1] (S. aureus NRS 2), 0.25 µg/mL (≈ 0.154 µM); in data set [1] (S. aureus NRS 3), 1 µg/mL (≈ 0.617 µM); in data set [1] (S. aureus NRS 4), 0.5 µg/mL (≈ 0.309 µM); in data set [1] (S. aureus NRS 13), 2 µg/mL (≈ 1.23 µM); in data set [1] (S. aureus NRS 18), 0.5 µg/mL (≈ 0.309 µM). The MIC in data set [1] (S. aureus NRS 22) came to 2 µg/mL (≈ 1.23 µM); in data set [1] (S. aureus NRS 24 (hVISA)), 0.5 µg/mL (≈ 0.309 µM); in data set [1] (S. aureus NRS 27), 0.25 µg/mL (≈ 0.154 µM).
For the compound `CC(=O)NC[C@H]1CN(c2ccc(N3CCOCC3)c(F)c2)C(=O)O1` [LZD], the MIC in data set [1] (S. aureus NRS 1 (hVISA)) worked out at 1 µg/mL (≈ 2.96 µM); in data set [1] (S. aureus NRS 2), 4 µg/mL (≈ 11.9 µM); in data set [1] (S. aureus NRS 3), 1 µg/mL (≈ 2.96 µM); in data set [1] (S. aureus NRS 4), 1 µg/mL (≈ 2.96 µM); in data set [1] (S. aureus NRS 13), 2 µg/mL (≈ 5.93 µM); in data set [1] (S. aureus NRS 18), 1 µg/mL (≈ 2.96 µM). The MIC in data set [1] (S. aureus NRS 22) is 1 µg/mL (≈ 2.96 µM); in data set [1] (S. aureus NRS 24 (hVISA)), 2 µg/mL (≈ 5.93 µM); in data set [1] (S. aureus NRS 27), 2 µg/mL (≈ 5.93 µM).
In the case of `C1C[S][Bi]([S]CC[S][Bi]2[S]CC[S]2)[S]1.SCCS` [Sample 1], in data set [2], the “D (10)” value came to 0.80 μm, the “D (50)” value is listed as 2.4 μm, the “D (90)” value turned out to be 5.9 μm and the “D [4,3]” value worked out at 2.9 μm.
For `C1C[S][Bi]([S]CC[S][Bi]2[S]CC[S]2)[S]1` [Sample 2], in that order: 0.58 μm, 1.7 μm, 3.9 μm and 2.0 μm.
For `C1C[S][Bi]([S]CC[S][Bi]2[S]CC[S]2)[S]1.SCCS` [Sample 3], in that order: 0.59 μm, 1.9 μm, 4.5 μm and 2.3 μm.
For `C1C[S][Bi]([S]CC[S][Bi]2[S]CC[S]2)[S]1` [Sample 4], in that order: 0.44 μm, 1.48 μm, 3.1 μm and 1.7 μm.
Take `C1C[S][Bi]([S]CC[S][Bi]2[S]CC[S]2)[S]1` [Sample 5]: in data set [2], the “D (10)” value turned out to be 0.33 μm, the “D (50)” value turned out to be 0.72 μm, the “D (90)” value is 1.6 μm and the “D [4,3]” value is 0.86 μm.
For `C1C[S][Bi]([S]CC[S][Bi]2[S]CC[S]2)[S]1` [Sample 6], in that order: 0.34 μm, 0.87 μm, 1.8 μm and 0.98 μm.
Take `C1C[S][Bi]([S]CC[S][Bi]2[S]CC[S]2)[S]1` [Sample 7]: in data set [2], the “D (10)” value is recorded as 0.39 μm, the “D (50)” value is listed as 1.3 μm, the “D (90)” value stood at 1.6 μm and the “D [4,3]” value is listed as 1.4 μm.
For the compound `C1C[S][Bi]([S]CC[S][Bi]2[S]CC[S]2)[S]1` [Sample 8], in data set [2], the “D (10)” value was determined as 0.36 μm, the “D (50)” value came out at 1.0 μm, the “D (90)” value was found to be 1.8 μm and the “D [4,3]” value is 1.0 μm.
As for `C1C[S][Bi]([S]CC[S][Bi]2[S]CC[S]2)[S]1` [Sample 9], in data set [2], the “D (10)” value was found to be 0.67 μm, the “D (50)” value worked out at 1.0 μm, the “D (90)” value is 1.9 μm and the “D [4,3]” value is 1.1 μm.
For `C1C[S][Bi]([S]CC[S][Bi]2[S]CC[S]2)[S]1` [Sample 10], in that order: 0.36 μm, 0.88 μm, 1.7 μm and 0.97 μm.
For `C1C[S][Bi]([S]CC[S][Bi]2[S]CC[S]2)[S]1` [Sample 11], in that order: 0.38 μm, 1.2 μm, 2.4 μm and 1.4 μm.
For `C1C[S][Bi]([S]CC[S][Bi]2[S]CC[S]2)[S]1` [Sample 12], in that order: 0.37 μm, 1.2 μm, 2.4 μm and 1.3 μm.
As to `C1C[S][Bi]([S]CC[S][Bi]2[S]CC[S]2)[S]1` [Sample 13], in data set [2], the “D (10)” value stood at 0.36 μm, the “D (50)” value is on record as 0.98 μm, the “D (90)” value is listed as 2.1 μm and the “D [4,3]” value turned out to be 1.2 μm.
As to `C1C[S][Bi]([S]CC[S][Bi]2[S]CC[S]2)[S]1` [Sample 14], in data set [2], the “D (10)” value came to 0.36 μm, the “D (50)” value is on record as 1.0 μm, the “D (90)” value came to 2.1 μm and the “D [4,3]” value was found to be 1.2 μm.
For `C1C[S][Bi]([S]CC[S][Bi]2[S]CC[S]2)[S]1` [Sample 15], in that order: 0.32 μm, 0.72 μm, 1.6 μm and 0.86 μm.
On to `CN[C@H](CC(C)C)C(=O)N[C@H]1C(=O)N[C@@H](CC(N)=O)C(=O)N[C@H]2C(=O)N[C@H]3C(=O)N[C@H](C(=O)N[C@H](C(=O)O)c4cc(O)cc(O)c4-c4cc3ccc4O)[C@H](O)c3ccc(c(Cl)c3)Oc3cc2cc(c3O[C@@H]2O[C@H](CO)[C@@H](O)[C@H](O)[C@H]2O[C@H]2C[C@](C)(N)[C@H](O)[C@H](C)O2)Oc2ccc(cc2Cl)[C@H]1O` [VAN], for which the minimum inhibitory concentration (MIC) in data set [1] (S. aureus NRS 1 (hVISA)) is 4 µg/mL (≈ 2.76 µM); in data set [1] (S. aureus NRS 2) it was 0.5 µg/mL (≈ 0.345 µM); in data set [1] (S. aureus NRS 3), 8 µg/mL (≈ 5.52 µM); in data set [1] (S. aureus NRS 4), 4 µg/mL (≈ 2.76 µM); in data set [1] (S. aureus NRS 13), 2 µg/mL (≈ 1.38 µM); in data set [1] (S. aureus NRS 18) it was 4 µg/mL (≈ 2.76 µM). Besides, the MIC in data set [1] (S. aureus NRS 22) came out at 4 µg/mL (≈ 2.76 µM); in data set [1] (S. aureus NRS 24 (hVISA)), 2 µg/mL (≈ 1.38 µM); in data set [1] (S. aureus NRS 27), 2 µg/mL (≈ 1.38 µM).
Regarding `CC(=O)NC[C@H]1CN(c2ccc(N3CCOCC3)c(F)c2)C(=O)O1` [linezolid, reference compound], the MIC in data set [1] (Staphylococcus aureus, VISA, read-out: MIC values) was not above 4 µg/mL.
